Reference: patent US20180312930A1, “METHOD FOR ANALYZING A SAMPLE TO DETECT THE PRESENCE OF SULPHITE-RESISTANT YEASTS OF THE BRETTANOMYCES BRUXELLENSIS SPECIES AND KIT FOR IMPLEMENTING SAME” (UNIVERSITE DE BORDEAUX, priority 2015, published 2018)

Assays:
Experiment in all cases: capacity of strains to grow in the presence of sulphur dioxide
Assay type in all cases: cell-based
[1] = tested on: Brettanomyces bruxellensis strains of the beer triploid group; conditions: 14 days of culture, 8 strains tested
Procedure: (§1) The 33 strains of Brettanomyces bruxellensis are cultivated in a medium in the absence or the presence of different concentrations of sulphur dioxide SO2 in the culture medium (0 mg/L, 0.2 mg/L, 0.4 mg/L and 0.6 mg/L).
(§2) After 14 days of culture, the capacity of the strains to grow in the different media is evaluated.

[2] = tested on: Brettanomyces bruxellensis strains of the oenological triploid group; conditions: 14 days of culture, 8 strains tested
Procedure: as §1, §2

[3] = tested on: Brettanomyces bruxellensis strains of the oenological diploid group; conditions: 14 days of culture, 17 strains tested
Procedure: as §1, §2

[4] = 0.2 mg/L active SO2 in the culture medium
[5] = 0.4 mg/L active SO2 in the culture medium
[6] = 0.6 mg/L active SO2 in the culture medium

O=S=O [sulphur dioxide]
Number of strains with the capacity to grow [1, 4]: 3
Number of strains with the capacity to grow [1, 5]: 0
Number of strains with the capacity to grow [1, 6]: 0
Number of strains with the capacity to grow [2, 4]: 8
Number of strains with the capacity to grow [2, 5]: 8
Number of strains with the capacity to grow [2, 6]: 4
Number of strains with the capacity to grow [3, 4]: 6
Number of strains with the capacity to grow [3, 5]: 1
Number of strains with the capacity to grow [3, 6]: 0
